Structures can show the parent of a compound that is named as a salt. Where two headings read alike, the source gives them in different places.
Key:
Type in all cases: biochemical
BTK-WT = molecular target: T1, BTK-WT (Homo sapiens, UniProt Q06187); assay: Btk in vitro inhibitory activity (one of Method A TR-FRET, Method B electrophoretic mobility shift, Method C radiometric filter binding); details: read-out: BTK-WT (IC50)
T1 construct: purified from insect cells as a full-length construct containing an N-terminal 6X-His tag; His6 (N); made in house; host or cells: insect cells (baculovirus Sf21 in Method B)

JAK3 = molecular target: T2, JAK3 (Homo sapiens, UniProt P52333); assay: Inhibition of a panel of kinases, in vitro HotSpot kinase assay: JAK3; details: 1 μM ATP, read-out: JAK3 (IC50)
T2 sequence (P52333 1-1124): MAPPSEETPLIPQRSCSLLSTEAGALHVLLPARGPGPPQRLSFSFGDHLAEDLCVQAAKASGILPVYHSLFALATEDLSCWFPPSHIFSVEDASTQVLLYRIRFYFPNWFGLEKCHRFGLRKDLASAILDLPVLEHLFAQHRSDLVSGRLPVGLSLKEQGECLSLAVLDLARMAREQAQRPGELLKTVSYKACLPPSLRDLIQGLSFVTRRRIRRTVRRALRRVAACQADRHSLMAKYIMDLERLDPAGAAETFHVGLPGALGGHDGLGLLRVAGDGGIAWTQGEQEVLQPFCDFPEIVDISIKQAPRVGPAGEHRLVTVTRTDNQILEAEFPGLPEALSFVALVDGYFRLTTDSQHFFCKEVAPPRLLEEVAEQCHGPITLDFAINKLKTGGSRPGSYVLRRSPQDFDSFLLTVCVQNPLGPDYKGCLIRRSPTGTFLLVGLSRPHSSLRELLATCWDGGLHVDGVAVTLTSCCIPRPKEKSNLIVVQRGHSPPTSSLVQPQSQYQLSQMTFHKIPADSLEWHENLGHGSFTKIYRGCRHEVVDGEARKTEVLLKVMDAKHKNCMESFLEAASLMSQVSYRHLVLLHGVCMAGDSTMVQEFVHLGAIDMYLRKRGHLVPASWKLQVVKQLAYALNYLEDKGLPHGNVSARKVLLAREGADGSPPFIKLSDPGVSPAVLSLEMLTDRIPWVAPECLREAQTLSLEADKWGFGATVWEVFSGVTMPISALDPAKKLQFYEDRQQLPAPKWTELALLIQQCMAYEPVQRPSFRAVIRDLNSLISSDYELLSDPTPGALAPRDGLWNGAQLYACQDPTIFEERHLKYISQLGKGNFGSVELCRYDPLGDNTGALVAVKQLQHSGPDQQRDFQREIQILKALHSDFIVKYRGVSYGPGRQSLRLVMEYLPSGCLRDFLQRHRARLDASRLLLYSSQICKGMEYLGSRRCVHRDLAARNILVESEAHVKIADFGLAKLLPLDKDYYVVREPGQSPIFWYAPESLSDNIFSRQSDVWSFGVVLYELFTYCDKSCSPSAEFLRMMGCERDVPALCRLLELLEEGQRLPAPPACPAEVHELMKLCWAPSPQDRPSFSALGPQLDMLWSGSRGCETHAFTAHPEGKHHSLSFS

LCK = LCK (Homo sapiens, UniProt P06239); assay: Inhibition of a panel of kinases, in vitro HotSpot kinase assay: LCK; details: 1 μM ATP, read-out: LCK (IC50)
Chain of LCK (P06239 whole entry): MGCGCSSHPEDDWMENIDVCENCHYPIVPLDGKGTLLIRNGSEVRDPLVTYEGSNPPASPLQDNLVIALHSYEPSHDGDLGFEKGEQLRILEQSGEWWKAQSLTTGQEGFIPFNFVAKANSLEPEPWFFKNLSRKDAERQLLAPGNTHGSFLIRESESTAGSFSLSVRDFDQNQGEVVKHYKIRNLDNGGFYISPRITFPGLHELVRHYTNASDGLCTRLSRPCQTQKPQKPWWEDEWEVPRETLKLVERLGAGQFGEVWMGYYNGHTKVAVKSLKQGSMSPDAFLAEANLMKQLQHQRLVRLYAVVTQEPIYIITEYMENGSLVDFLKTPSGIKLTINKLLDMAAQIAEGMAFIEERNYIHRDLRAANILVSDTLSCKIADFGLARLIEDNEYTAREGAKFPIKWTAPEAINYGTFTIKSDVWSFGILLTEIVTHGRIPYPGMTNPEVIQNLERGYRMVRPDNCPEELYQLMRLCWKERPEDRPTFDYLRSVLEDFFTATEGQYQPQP

T1 sequence (Q06187 whole entry): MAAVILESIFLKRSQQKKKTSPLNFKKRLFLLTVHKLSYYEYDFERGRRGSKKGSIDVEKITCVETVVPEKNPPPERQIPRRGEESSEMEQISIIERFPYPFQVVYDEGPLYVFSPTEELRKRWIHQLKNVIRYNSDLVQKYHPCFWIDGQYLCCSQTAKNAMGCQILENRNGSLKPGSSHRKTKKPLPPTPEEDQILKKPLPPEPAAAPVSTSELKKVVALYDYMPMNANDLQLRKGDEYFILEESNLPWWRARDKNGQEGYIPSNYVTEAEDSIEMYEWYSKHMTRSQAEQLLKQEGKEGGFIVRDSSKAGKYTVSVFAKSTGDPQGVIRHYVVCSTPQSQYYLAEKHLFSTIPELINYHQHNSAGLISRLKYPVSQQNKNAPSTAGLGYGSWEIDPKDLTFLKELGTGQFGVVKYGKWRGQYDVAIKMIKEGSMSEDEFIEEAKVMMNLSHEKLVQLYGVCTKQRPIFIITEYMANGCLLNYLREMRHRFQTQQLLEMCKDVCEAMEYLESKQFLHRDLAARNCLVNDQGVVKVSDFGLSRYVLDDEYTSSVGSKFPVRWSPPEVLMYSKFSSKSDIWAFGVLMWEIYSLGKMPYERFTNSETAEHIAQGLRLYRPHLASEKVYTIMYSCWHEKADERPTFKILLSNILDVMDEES

| IC50 (BTK-WT; Table 10, Formula A-I) | IC50 (JAK3; Table 10, Formula A-I) | IC50 (LCK; Table 10, Formula A-I) | SMILES | other results |
| --- | --- | --- | --- | --- |
| ≤ 100 nM | 100 to 1000 nM | 100 to 1000 nM | Cc1cc(Nc2nc(N3CCC[C@@H](NC(=O)c4cccc(F)c4)C3)cnc2C(N)=O)sn1 [Example A-22, 5-[(3R)-3-(3-fluorobenzamido)piperidin-1-yl]-3-[(3-methyl-1,2-thiazol-5-yl)amino]pyrazine-2-carboxamide] |  |
| ≤ 100 nM | 100 to 1000 nM | < 100 nM | CN(C)c1ccc(C(=O)N[C@@H]2CCCN(c3cnc(C(N)=O)c(Nc4ccc(C5(C)CCN(C6CC6)CC5)cc4)n3)C2)cc1 [Example A-49, 3-{[4-(1-cyclopropyl-4-methylpiperidin-4-yl)phenyl]amino}-5-[(3R)-3-[4-(dimethylamino)benzamido]piperidin-1-yl]pyrazine-2-carboxamide] |  |
|  |  |  | Cc1cc(Nc2nc(N(C)CC3CCN(C(=O)N(C)C)CC3)cnc2C(N)=O)sn1 [Example C-14, 5-({[1-(dimethylcarbamoyl)piperidin-4-yl]methyl}(methyl)amino)-3-[(3-methyl-1,2-thiazol-5-yl)amino]pyrazine-2-carboxamide] | IC50 (BTK-WT; Table 12, Formula C-I): 100 to 1000 nM; IC50 (JAK3; Table 12, Formula C-I): 1000 to 10000 nM; IC50 (LCK; Table 12, Formula C-I): 1000 to 10000 nM |
| ≤ 100 nM | > 10000 nM | > 10000 nM | Cc1cc(Nc2nc(N3CCC[C@@H](NC(=O)c4ccc(F)cc4F)C3)cnc2C(N)=O)sn1 [Example A-36, 5-[(3R)-3-(2,4-difluorobenzamido)piperidin-1-yl]-3-[(3-methyl-1,2-thiazol-5-yl)amino]pyrazine-2-carboxamide] |  |
|  |  |  | Cc1cc(Nc2nc(N[C@@H]3CCCNC3)cnc2C(N)=O)sn1 [Example C-1, 3-[(3-methyl-1,2-thiazol-5-yl)amino]-5-{[(3R)-piperidin-3-yl]amino}pyrazine-2-carboxamide] | IC50 (BTK-WT; Table 12, Formula C-I): ≤ 100 nM; IC50 (JAK3; Table 12, Formula C-I): < 100 nM; IC50 (LCK; Table 12, Formula C-I): < 100 nM |
|  |  |  | CN1CCN(C(=O)c2ccc(Nc3nc(NC4CCC(NC(=O)N(C)C)CC4)cnc3C(N)=O)cc2)CC1 (stereo not drawn) [Example B-13, 5-(4-(3,3-dimethylureido)cyclo-hexylamino)-3-(4-(4-methylpiperazine-1-carbonyl)phenylamino) pyrazine-2-carboxamide] | IC50 (BTK-WT; Table 11, Formula B-I): ≤ 100 nM; IC50 (JAK3; Table 11, Formula B-I): 100 to 1000 nM; IC50 (LCK; Table 11, Formula B-I): < 100 nM |
|  |  |  | Cc1cc(Nc2nc(NC3CCC(NC(=O)c4ccc(N(C)C)cc4)CC3)cnc2C(N)=O)sn1 (stereo not drawn) [Example B-5, 5-({4-[4-(dimethylamino)benzamido]cyclohexyl}amino)-3-[(3-methyl-1,2-thiazol-5-yl)amino]pyrazine-2-carboxamide] | IC50 (BTK-WT; Table 11, Formula B-I): ≤ 100 nM; IC50 (JAK3; Table 11, Formula B-I): < 100 nM; IC50 (LCK; Table 11, Formula B-I): 100 to 1000 nM |
|  |  |  | Cc1cc(Nc2nc(N[C@@H]3CCCN(C(=O)N(C)C)C3)cnc2C(N)=O)sn1 [Example C-5, 5-([(3R)-1-(dimethylcarbamoyl)piperidin-3-yl]amino)-3-[(3-methyl-1,2-thiazol-5-yl)amino]pyrazine-2-carboxamide hydrochloride] | IC50 (BTK-WT; Table 12, Formula C-I): 100 to 1000 nM; IC50 (JAK3; Table 12, Formula C-I): 100 to 1000 nM; IC50 (LCK; Table 12, Formula C-I): 1000 to 10000 nM |
| ≤ 100 nM | 100 to 1000 nM | 100 to 1000 nM | Cc1cc(Nc2nc(N3CCC[C@@H](NC(=O)c4ccccc4)C3)cnc2C(N)=O)sn1 [Example A-19, 5-[(3R)-3-benzamidopiperidin-1-yl]-3-[(3-methyl-1,2-thiazol-5-yl)amino]pyrazine-2-carboxamide] |  |
|  |  |  | CN1CCN(C(=O)c2ccc(Nc3nc(NC4CCC(NC(=O)c5ccc(C6CC6)cc5F)CC4)cnc3C(N)=O)cc2)CC1 (stereo not drawn) [Example B-15, 5-(4-(4-cyclopropyl-2-fluoro-benzamido)cyclohexyl-amino)-3-(4-(4-methylpiperazine-1-carbonyl)phenylamino) pyrazine-2-carboxamide] | IC50 (BTK-WT; Table 11, Formula B-I): ≤ 100 nM; IC50 (JAK3; Table 11, Formula B-I): < 100 nM; IC50 (LCK; Table 11, Formula B-I): < 100 nM |
| ≤ 100 nM | 1000 to 10000 nM | > 10000 nM | CN(C)C(=O)N[C@@H]1CCCN(c2cnc(C(N)=O)c(Nc3ccc4ncccc4c3)n2)C1 [Example A-47, 5-[(3R)-3-[(dimethylcarbamoyl)amino]piperidin-1-yl]-3-[(quinolin-6-yl)amino]pyrazine-2-carboxamide] |  |
| ≤ 100 nM | 1000 to 10000 nM | > 10000 nM | Cc1cc(Nc2nc(N3CCC[C@@H](NC(=O)c4ccc(N5CCCC5)cc4)C3)cnc2C(N)=O)sn1 [Example A-26, 3-[(3-methyl-1,2-thiazol-5-yl)amino]-5-[(3R)-3-[4-(pyrrolidin-1-yl)benzamido]piperidin-1-yl]pyrazine-2-carboxamide] |  |
|  |  |  | Cc1cc(Nc2nc(N[C@H]3CCCN(C(=O)c4ccc(N(C)C)cc4)C3)cnc2C(N)=O)sn1 [Example C-4, 5-{[(3S)-1-[4-(dimethylamino)benzoyl]piperidin-3-yl]amino}-3-[(3-methyl-1,2-thiazol-5-yl)amino]pyrazine-2-carboxamide] | IC50 (BTK-WT; Table 12, Formula C-I): ≤ 100 nM; IC50 (JAK3; Table 12, Formula C-I): > 10000 nM; IC50 (LCK; Table 12, Formula C-I): > 10000 nM |
| ≤ 100 nM | > 10000 nM | > 10000 nM | Cc1ccc(C(=O)N[C@@H]2CCCN(c3cnc(C(N)=O)c(Nc4cc(C)ns4)n3)C2)c(F)c1 [Example A-24, 5-[(3R)-3-(2-fluoro-4-methylbenzamido)piperidin-1-yl]-3-[(3-methyl-1,2-thiazol-5-yl)amino]pyrazine-2-carboxamide] |  |
| ≤ 100 nM | 100 to 1000 nM | > 10000 nM | Cc1cc(Nc2nc(N3CCC[C@@H](NC(=O)c4ccc(N(C)C)cc4)C3)cnc2C(N)=O)sn1 [Example A-21, 5-[(3R)-3-[4-(dimethylamino)benzamido]piperidin-1-yl]-3-[(3-methyl-1,2-thiazol-5-yl)amino]pyrazine-2-carboxamide] |  |
| ≤ 100 nM | 100 to 1000 nM | 100 to 1000 nM | Cc1cc(Nc2nc(N3CCC[C@@H](NC(=O)c4ccc(N)cc4)C3)cnc2C(N)=O)sn1 [Example A-25, 5-[(3R)-3-(4-aminobenzamido)piperidin-1-yl]-3-[(3-methyl-1,2-thiazol-5-yl)amino]pyrazine-2-carboxamide] |  |
| 100 to 1000 nM | 1000 to 10000 nM | 100 to 1000 nM | Cc1cc(Nc2cc(N3CCC[C@@H](NC(=O)c4ccccc4)C3)cnc2C(N)=O)sn1 [Example A-61, 5-[(3R)-3-benzamidopiperidin-1-yl]-3-[(3-methyl-1,2-thiazol-5-yl)amino]pyridine-2-carboxamide] |  |
|  |  |  | CN1CCN(C(=O)c2ccc(Nc3nc(N[C@H]4CC[C@H](NC(=O)c5ccc(C6CC6)cc5F)CC4)cnc3C(N)=O)cc2)CC1 [Example B-14, 5-((1r,4r)-4-(4-cyclo-propyl-2-fluoro-benzamido)cyclohexyl-amino)-3-(4-(4-methylpiperazine-1-carbonyl)phenylamino) pyrazine-2-carboxamide] | IC50 (BTK-WT; Table 11, Formula B-I): ≤ 100 nM; IC50 (JAK3; Table 11, Formula B-I): 100 to 1000 nM; IC50 (LCK; Table 11, Formula B-I): 100 to 1000 nM |
| ≤ 100 nM | 100 to 1000 nM | 100 to 1000 nM | CCn1ccc2cc(C(=O)N[C@@H]3CCCN(c4cnc(C(N)=O)c(Nc5cc(C)ns5)n4)C3)ccc21 [Example A-31, N-[(3R)-1-{5-carbamoyl-6-[(3-methyl-1,2-thiazol-5-yl)amino]pyrazin-2-yl}piperidin-3-yl]-1-ethyl-1H-indole-5-carboxamide] |  |
| ≤ 100 nM | 1000 to 10000 nM | > 10000 nM | NC(=O)c1ncc(N2CCC[C@@H](NC(=O)c3ccccc3)C2)nc1Nc1ccc2ncccc2c1 [Example A-45, 5-[(3R)-3-benzamidopiperidin-1-yl]-3-[(quinolin-6-yl)amino]pyrazine-2-carboxamide] |  |
| ≤ 100 nM | 1000 to 10000 nM | 100 to 1000 nM | Cc1cc(Nc2nc(N3CCC[C@@H](NC(=O)NC4CCCCC4)C3)cnc2C(N)=O)sn1 [Example A-13, 5-[(3R)-3-[(cyclohexylcarbamoyl)amino]piperidin-1-yl]-3-[(3-methyl-1,2-thiazol-5-yl)amino]pyrazine-2-carboxamide] |  |
